Data on 2 molecules can be found in patent US20240025904A1, “PDE9 INHIBITORS FOR TREATING CARDIAC FAILURE” (Cardurion Pharmaceuticals, Inc., priority 2020, published 2024).

In data set [1] the test system is angiotensin II-infused mouse (Ang-II model of HFpEF). The experiment in a line: Angiotensin II infusion mouse model of HFpEF. The data set is classed as in vivo. The text has this:
C57BL/6J mice develop compensatory concentric hypertrophy and fibrosis in response to angiotensin II. Pulmonary congestion, as well as exercise intolerance, are evident and seem to be related to angiotensin II-induced skeletal muscle abnormalities, including impaired mitochondrial function and skeletal muscle atrophy. In summary, if strain and dosage are optimized to mirror the human HFpEF phenotype, angiotensin II infusion appears to be a relevant HFpEF model.
Model 2: eight-week-old C57BL/6J male mice were anesthetized with isoflurane and subcutaneously implanted with an osmotic minipump to continuously infuse angiotensin II in 10 mM acetic acid at a dose of 1.5 mg/kg per day over a period of 4 to 6 weeks. Experimental animal groups were randomly assigned to receive either vehicle or Compound 1 at 60 mg/kg/day or 100 mg/kg/day by oral gavage for 4 or 6 weeks (36 mice, N=6/group) over the same time period. The mice were housed in a standard-temperature, 12 h/12 h light/dark controlled room, with water and standard rodent diet available ad libitum. Mice were euthanized 4 or 6 weeks after angiotensin-II infusion. It has been shown that administering of 60 mg/kg of Compound 1 in mice is equivalent to administering about 4.8 mg/kg of Compound 1 in adult human subjects. Similarly, it has been shown that administering 100 mg/kg of Compound 1 in mice is equivalent to administering about 8.1 mg/kg of Compound 1 in human subjects.
(§1) Methods: Cardiac and renal responses to Compound 1 (60 mg/kg, 100 mg/kg) compared with vehicle were examined over 6-8 weeks in 3 adult male mouse models of HFpEF (1.5 mg/kg/d angiotensin-II infusion [ang-II]; uninephrectomy+0.30 μg/h d-aldosterone infusion+1% NaCl drinking water [neph-aldo]; and db/db [db]). Phenotyping included wheat germ agglutinin staining for cardiomyocyte cross-sectional area (CSA); RT-PCR for myocardial PDE9, natriuretic peptide, inflammatory and fibrosis marker transcript abundances; ELISA for plasma natriuretic peptides; and urinary albumin to creatinine ratio (UACR).
(§2) P-value from Wilcoxon rank-sum test. Ang-II model (8-week old C57BL/6 mice were infused with ang-II at […] for 6 weeks with concomitant Compound 1 or vehicle). Neph+d-aldo+1% NaCl model (8-week old C57BL/6 mice underwent uninephrectomy then were infused with d-aldosterone for 6 weeks with ad-libitum 1% NaCl drinking water while receiving concomitant Compound 1 or vehicle). db model (20-week old BKS.Cg-Dock7m+/+Leprdb/J received vehicle or Compound 1 for 8 weeks). mRNA expression levels were normalized to GAPDH, Rpl4 and Eef1e1.

In data set [2] the test system is aldosterone-infused and unilateral nephrectomized mouse (neph-aldo model of HFpEF). The experiment in a line: Uninephrectomy + d-aldosterone infusion + 1% NaCl mouse model of HFpEF. The format is in vivo.
Source text: Mice subjected to uninephrectomy and aldosterone infusion for 4 to 6 weeks, accompanied by 1% NaCl intake, develop HFpEF with moderate hypertension, concentric left ventricle hypertrophy, pulmonary congestion, and echocardiographic evidence of diastolic dysfunction while maintaining a normal/preserved LVEF. These mice also show exercise impairment. At the molecular level, left ventricle tissue from these mice show an increase in natriuretic peptides, cardiac size and fibrosis, as well as an increase in the oxidative stress.
Model 1: eight-week-old C57BL/6J male mice were anesthetized with 100 mg/kg ketamine and 10 mg/kg xylazine intraperitoneally. All mice underwent unilateral nephrectomy and then will receive a continuous infusion of d-aldosterone (0.30 μg/h) via osmotic minipumps. All mice were maintained on 1.0% sodium chloride drinking water. Mice were randomized to receive either vehicle or Compound 1 at 60 mg/kg/day or 100 mg/kg/day by oral gavage for 4 or 6 weeks (36 mice, N=6/group). The mice were housed in a standard-temperature, 12 h/12 h light/dark controlled room, with water and standard rodent diet available ad libitum. Mice were euthanized 4 or 6 weeks after the beginning of the treatment. It has been shown that administering of 60 mg/kg of Compound 1 in mice is equivalent to administering about 4.8 mg/kg of Compound 1 in adult human subjects. Similarly, it has been shown that administering 100 mg/kg of Compound 1 in mice is equivalent to administering about 8.1 mg/kg of Compound 1 in human subjects.
as §1, §2

The test system of a further data set is db/db mouse. The experiment in a line: db/db mouse model of HFpEF. The format is in vivo.
Source text: The db/db leptin receptor-deficient mouse has a point mutation in the diabetes (db) gene encoding the leptin receptor, which spontaneously causes morbid obesity accompanied by severe hyperglycemia secondary to type 2 diabetes. […] At the histological level, these mice hearts have enlarged cardiomyocytes, evidence of fibrosis, and capillary rarefaction. The db/db mice appear to represent the obese/metabolic HFpEF phenotype, with evidence of HF, whereas LVEF is preserved.
Model 3: twenty-week old male diabetic-prone, obese db/db mice of the BKS.Cg-Dock7m+/+Leprdb/J strain will be randomly assigned (30 mice, n=10/group) to receive vehicle or chronic Compound 1 treatment at 60 mg/kg/day or 100 mg/kg/day. Treatment will be carried for 8 weeks using subcutaneous osmotic pumps. The mice will be housed in a standard-temperature, 12 h/12 h light/dark controlled room, with water and standard rodent diet available ad libitum.
as §1, §2

Another data set concerns patient. The data set can be described thus: Administration with food, adverse event profile. The conditions noted are these: once a day with food. The format is in vivo.
Data set [3] deals with adult patients with sickle cell disease. The data set can be described thus: IMR-SCD-102 Phase 2a trial, plasma NT-proBNP. The data set is classed as in vivo, human. As for the experimental part:
IMR-SCD-102 is an ongoing Phase 2a randomized double-blind placebo-controlled trial testing Compound 1 (IMR-687) at 50 mg-200 mg daily as monotherapy or 50-100 mg in combination with background hydroxyurea therapy (Compound 1+HU). A protocol amendment later in the study allowed for sample collection and characterization of NT-proBNP levels in the combination cohort (Compound 1+HU versus HU alone). Plasma NT-proBNP was measured in 15 subjects (100% HbSS genotype) at randomization and again at 4 months. A 2:1 randomization schema favoring combination treatment translated to 10 subjects on Compound 1+HU and 5 on HU alone. Baseline, 4-month follow-up, and change in NT-proBNP levels were quantified. Further, whether the change in NT-proBNP level varied according to treatment and baseline NT-proBNP level was tested.

Where [4] appears, read: median, Ang-II model, 6 weeks, normalized to GAPDH, Rpl4 and Eef1e1.
The mark [5] stands for this setting: median, Neph + Aldo model, 6 weeks.
[6] abbreviates: median, Neph + Aldo model, 6 weeks, normalized to GAPDH, Rpl4 and Eef1e1.
[7] abbreviates: median, db/db model, 8 weeks, normalized to GAPDH, Rpl4 and Eef1e1.

“And” between values parts separate entries of the source, which are not always exact repeats. Equal values may be shown once.

With `C[C@@H]1CN(Cc2ncccn2)C[C@H]1c1cn2c(C3CCOCC3)ncc2c(=O)[nH]1` (single isomer, unassigned) [Compound 1], the “heart size and cardiomyocyte hypertrophy” value in data set [1] (6 weeks of dosing at 60 and 100 mg/kg, FIGS. 1A, 1B) is “decreases”; in data set [2] (after 4 weeks of dosing at 60 and 100 mg/kg, FIGS. 2A, 2B), “decreases”. Besides, the “Heart rate and blood pressure, Compound 1 vs vehicle treated mice” value (in data set [1] (ang-II model); in data set [2] (neph-aldo model); with db/db mouse (db model)) was “did not differ” each time. Further, the “reduction of median cardiomyocyte size (CSA) compared with vehicle” value in data set [1] (ang-II model, Compound 1 60 mg/kg, 100 mg/kg, p<0.003) was found to be 54%; in data set [2] (neph-aldo model, Compound 1 60 mg/kg, 100 mg/kg, p<0.003), 58%; in the data set with db/db mouse (db model, Compound 1 60 mg/kg, 100 mg/kg, p<0.003), 35%. Besides, the “ANP and BNP markers of cardiac dysfunction” value in data set [1] (dosing with 60 and 100 mg/kg, FIGS. 3A, 3B left side) is “decreases”; in data set [2] (dosing with 60 and 100 mg/kg, FIGS. 3A, 3B right side), “decreases”. Also, the “PDE5 and PDE9 expression” value in data set [1] (in combination with Angiotensin II, FIG. 4A) was “increased”; in data set [2] (in combination with nephrectomy-aldosterone, FIG. 4B) it was “increased”. The “markers of myocardial inflammation” value is recorded as “decreases” in data set [1] (in combination with Angiotensin II, FIG. 8A) and “decreases” in data set [2] (in combination with nephrectomy-aldosterone, FIG. 8B). Besides, the “heart fibrosis (TGF-ß1 and downstream targets Fibronectin and Collagen type I and III)” value is recorded as “decreases” in data set [1] (in combination with Angiotensin II, FIGS. 6A, 6B) and “decreases” in data set [2] (in combination with nephrectomy-aldosterone, FIG. 7). Also, the “Plasma ANP” value in data set [1] (median, Ang-II model, 6 weeks) stood at 968 pg/mL; in data set [2] (setting [5]), 740 pg/mL; with db/db mouse (median, db/db model, 8 weeks) it was 714 pg/mL. Also, the “Plasma BNP” value in data set [1] (median, Ang-II model, 6 weeks) stood at 2376 pg/mL; in data set [2] (setting [5]), 1216 pg/mL; in the data set with db/db mouse (median, db/db model, 8 weeks), 830 pg/mL. Moreover, the “Urine UACR (urinary albumin to creatinine ratio)” value stood at 95.5 µg/mg in data set [1] (median, Ang-II model, 6 weeks); 48.4 µg/mg in data set [2] (setting [5]); 132.5 µg/mg in the data set with db/db mouse (median, db/db model, 8 weeks). Besides, the “Myocardial mRNA PDE9” value came to 1.7 in data set [1] (median, Ang-II model, 6 weeks, Compound 1 60 mg/kg, 100 mg/kg, normalized to GAPDH, Rpl4 and Eef1e1); 3.7 in data set [2] (median, Neph + Aldo model, 6 weeks, Compound 1 60 mg/kg, 100 mg/kg, normalized to GAPDH, Rpl4 and Eef1e1); 1.5 with db/db mouse (median, db/db model, 8 weeks, Compound 1 60 mg/kg, 100 mg/kg, normalized to GAPDH, Rpl4 and Eef1e1). The “Myocardial mRNA COL3A1” value in data set [1] (setting [4]) is 1.5; in data set [2] (setting [6]), 2.6; with db/db mouse (setting [7]), 1.1. The “Myocardial mRNA IL-1b” value was 1.9 in data set [1] (setting [4]), 2.5 in data set [2] (setting [6]) and 3.6 with db/db mouse (setting [7]). For the same molecule, the “Myocardial mRNA NPPA” value in data set [1] (setting [4]) was found to be 1.4; in data set [2] (setting [6]) it was 4.9; with db/db mouse (setting [7]) it was 1.7. Besides, the “Myocardial mRNA NPPB” value in data set [1] (setting [4]) is reported as 2.0; in data set [2] (setting [6]) it was 4.2; with db/db mouse (setting [7]), 2.2. Also, in the data set on patient, the “effect of food on adverse event profile (nausea, emesis, headache)” value is recorded as “reduce the adverse event profile dramatically”.

As to `NC(=O)NO` [HU, hydroxyurea], the “treated subjects with greater than 50% reduction in NT-proBNP levels” value in data set [3] (at 4 months) is reported as “none”. Also, in data set [3] (plasma, 4 months), the “mean 4-month follow-up NT-proBNP level” value is 436 pg/mL; the “mean NT-proBNP higher at 4 months than baseline” value is 27.0% and 27. %; the “mean increase of NT-proBNP, baseline to 4 months” value was 93 pg/mL. In addition, the “mean baseline NT-proBNP level” value in data set [3] (plasma, at randomization) was 343 pg/mL. For the same molecule, the “average increase in NT-proBNP between baseline and 4 months” value in data set [3] (subjects with baseline NT-proBNP ≥400 pg/ml) was 28%.
